Laboratory results as given in patent US20230065740A1, “CYCLIN-DEPENDENT KINASE INHIBITORS” (SPV THERAPEUTICS INC., priority 2018, published 2023).
Like-named read-outs stand apart in the source and are kept apart here.

Legend:
[1] = molecular target: CDK4-CYCLIND1 (Homo sapiens, UniProt P11802); assay: Microfluidic LabChip kinase inhibition assay, CDK4-CyclinD1; settings: CDK4 CyclinD1 IC50 (μM), 200 μM ATP, second value in parentheses on the next line
[2] = molecular target: CDK1/B (Homo sapiens, UniProt P06493); assay: Additional inhibition assay, CDK1/B; assay type: biochemical
Sequence of CDK1/B (P06493 whole entry): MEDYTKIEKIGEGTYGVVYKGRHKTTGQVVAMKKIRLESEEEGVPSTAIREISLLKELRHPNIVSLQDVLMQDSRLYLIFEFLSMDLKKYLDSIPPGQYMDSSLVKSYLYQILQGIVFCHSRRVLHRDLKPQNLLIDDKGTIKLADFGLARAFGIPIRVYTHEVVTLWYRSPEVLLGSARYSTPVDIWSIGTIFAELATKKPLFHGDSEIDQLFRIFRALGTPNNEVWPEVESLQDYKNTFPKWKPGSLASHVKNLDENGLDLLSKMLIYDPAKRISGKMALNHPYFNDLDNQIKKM
Sequence of CDK1/B (P14635 whole entry partner): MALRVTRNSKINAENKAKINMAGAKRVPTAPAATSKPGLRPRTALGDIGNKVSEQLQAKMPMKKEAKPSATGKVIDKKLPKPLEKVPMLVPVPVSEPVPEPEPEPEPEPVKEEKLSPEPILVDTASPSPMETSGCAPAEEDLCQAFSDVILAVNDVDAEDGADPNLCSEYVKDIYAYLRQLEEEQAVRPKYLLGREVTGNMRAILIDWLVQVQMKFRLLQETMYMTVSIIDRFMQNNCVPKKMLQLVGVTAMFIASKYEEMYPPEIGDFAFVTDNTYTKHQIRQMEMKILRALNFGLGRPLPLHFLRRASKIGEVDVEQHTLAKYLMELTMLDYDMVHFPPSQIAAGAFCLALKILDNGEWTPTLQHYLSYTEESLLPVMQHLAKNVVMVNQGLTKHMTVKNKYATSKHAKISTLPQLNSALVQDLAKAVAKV

[3] = molecular target: T1, CDK9-CYCLINT1 (Homo sapiens, UniProt P50750); assay: Microfluidic LabChip kinase inhibition assay, CDK9-CyclinT1; assay type: biochemical; settings: 10 μM ATP, read-out: CDK9 CyclinT1 IC50
T1 construct: purchased Carna
T1 sequence (P50750 whole entry): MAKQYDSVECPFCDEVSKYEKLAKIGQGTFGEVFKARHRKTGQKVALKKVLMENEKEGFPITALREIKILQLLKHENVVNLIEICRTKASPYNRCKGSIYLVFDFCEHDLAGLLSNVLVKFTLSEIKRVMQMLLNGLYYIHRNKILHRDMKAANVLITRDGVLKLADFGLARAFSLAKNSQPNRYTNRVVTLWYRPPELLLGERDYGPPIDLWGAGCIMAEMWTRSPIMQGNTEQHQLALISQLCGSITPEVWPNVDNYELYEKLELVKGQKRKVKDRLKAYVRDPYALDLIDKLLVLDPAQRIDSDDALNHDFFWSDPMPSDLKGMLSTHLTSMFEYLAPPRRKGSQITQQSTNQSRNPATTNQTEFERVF
T1 sequence (O60563 whole entry partner): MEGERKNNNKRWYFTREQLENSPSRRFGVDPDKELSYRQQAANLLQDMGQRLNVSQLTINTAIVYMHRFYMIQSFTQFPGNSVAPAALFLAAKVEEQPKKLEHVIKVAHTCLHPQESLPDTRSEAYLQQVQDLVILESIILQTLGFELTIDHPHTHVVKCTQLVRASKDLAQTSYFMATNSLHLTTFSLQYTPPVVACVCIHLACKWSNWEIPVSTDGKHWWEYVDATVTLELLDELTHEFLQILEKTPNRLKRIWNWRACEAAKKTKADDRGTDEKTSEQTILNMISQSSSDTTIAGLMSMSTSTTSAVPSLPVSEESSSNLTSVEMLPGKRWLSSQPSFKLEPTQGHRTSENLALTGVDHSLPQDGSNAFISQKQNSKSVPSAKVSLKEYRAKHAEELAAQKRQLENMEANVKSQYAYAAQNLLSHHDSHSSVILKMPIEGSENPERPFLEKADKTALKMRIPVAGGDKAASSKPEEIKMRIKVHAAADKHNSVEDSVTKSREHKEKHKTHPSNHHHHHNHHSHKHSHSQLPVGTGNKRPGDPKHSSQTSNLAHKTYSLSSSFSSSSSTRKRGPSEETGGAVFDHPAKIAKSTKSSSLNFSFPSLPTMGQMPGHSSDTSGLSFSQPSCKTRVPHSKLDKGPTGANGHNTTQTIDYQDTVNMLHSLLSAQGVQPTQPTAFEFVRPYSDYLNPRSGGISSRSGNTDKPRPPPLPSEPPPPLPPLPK

[4] = molecular target: CDK7 CyclinH (Homo sapiens, UniProt P50613); assay: Additional inhibition assay, CDK7 CyclinH; assay type: biochemical
Sequence of CDK7 CyclinH (P50613 whole entry): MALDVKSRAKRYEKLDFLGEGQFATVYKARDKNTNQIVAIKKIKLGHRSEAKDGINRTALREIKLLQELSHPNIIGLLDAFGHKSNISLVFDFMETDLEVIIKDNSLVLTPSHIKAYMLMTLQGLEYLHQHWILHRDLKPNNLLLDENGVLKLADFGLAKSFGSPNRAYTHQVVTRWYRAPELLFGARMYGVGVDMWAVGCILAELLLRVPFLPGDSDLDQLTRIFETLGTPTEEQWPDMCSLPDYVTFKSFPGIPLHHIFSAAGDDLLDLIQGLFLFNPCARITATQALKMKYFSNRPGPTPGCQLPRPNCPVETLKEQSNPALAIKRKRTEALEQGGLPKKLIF
Sequence of CDK7 CyclinH (P51946 whole entry partner): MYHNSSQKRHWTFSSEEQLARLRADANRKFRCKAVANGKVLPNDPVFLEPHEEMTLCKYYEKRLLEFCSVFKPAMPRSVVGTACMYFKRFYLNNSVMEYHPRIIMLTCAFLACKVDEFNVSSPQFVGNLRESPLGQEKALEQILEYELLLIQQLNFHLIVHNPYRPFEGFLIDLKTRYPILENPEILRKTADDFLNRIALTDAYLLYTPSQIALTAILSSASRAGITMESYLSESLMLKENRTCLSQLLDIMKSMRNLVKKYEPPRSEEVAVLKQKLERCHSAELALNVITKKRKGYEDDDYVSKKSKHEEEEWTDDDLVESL
Sequence of CDK7 CyclinH (P51948 whole entry partner): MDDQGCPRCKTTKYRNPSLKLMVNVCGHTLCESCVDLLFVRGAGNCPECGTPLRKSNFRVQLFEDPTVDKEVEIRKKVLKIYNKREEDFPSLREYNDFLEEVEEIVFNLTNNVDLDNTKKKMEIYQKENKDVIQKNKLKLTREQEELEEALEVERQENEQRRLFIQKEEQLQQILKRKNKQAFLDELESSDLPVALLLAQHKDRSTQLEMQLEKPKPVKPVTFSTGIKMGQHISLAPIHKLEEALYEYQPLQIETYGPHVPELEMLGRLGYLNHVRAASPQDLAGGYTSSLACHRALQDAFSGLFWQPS

[5] = molecular target: T2, CDK2-CYCLINA (Homo sapiens, UniProt P24941); assay: Microfluidic LabChip kinase inhibition assay, CDK2-CyclinA; assay type: biochemical; settings: 50 μM ATP
T2 construct: purchased Millipore

Sequence of CDK4-CYCLIND1 (P11802 whole entry): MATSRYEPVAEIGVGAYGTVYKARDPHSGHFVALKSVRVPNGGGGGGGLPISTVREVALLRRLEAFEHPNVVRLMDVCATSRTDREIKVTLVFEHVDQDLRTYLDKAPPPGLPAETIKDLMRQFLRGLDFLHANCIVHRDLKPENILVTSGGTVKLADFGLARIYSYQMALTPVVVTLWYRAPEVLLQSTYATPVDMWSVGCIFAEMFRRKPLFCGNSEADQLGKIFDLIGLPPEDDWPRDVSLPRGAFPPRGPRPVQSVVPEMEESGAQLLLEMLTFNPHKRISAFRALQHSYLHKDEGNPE
Sequence of CDK4-CYCLIND1 (P24385 whole entry partner): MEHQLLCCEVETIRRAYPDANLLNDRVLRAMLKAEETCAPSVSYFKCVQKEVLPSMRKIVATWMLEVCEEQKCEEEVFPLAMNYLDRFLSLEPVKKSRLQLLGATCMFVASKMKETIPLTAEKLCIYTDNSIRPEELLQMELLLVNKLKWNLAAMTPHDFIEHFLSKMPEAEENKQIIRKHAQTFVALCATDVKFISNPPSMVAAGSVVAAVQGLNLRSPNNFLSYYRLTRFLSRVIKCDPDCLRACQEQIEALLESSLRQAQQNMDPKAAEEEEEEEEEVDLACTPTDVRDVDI

| Structure (SMILES) | IC50 ([1]; Table 3a) [µM] | IC50 ([1]; Table 3b) [µM] | IC50 ([2]; Table 3a) [nM] | IC50 ([2]; Table 3b) [nM] | IC50 ([3]; Table 3a) [nM] | IC50 ([4]; Table 3a) [nM] | IC50 ([4]; Table 3b) [nM] | IC50 ([5]; Table 3a) [nM] | IC50 ([5]; Table 3b) [nM] | IC50 ([3]; Table 3b) [nM] |
| --- | --- | --- | --- | --- | --- | --- | --- | --- | --- | --- |
| O=C1NCCC12Cc1cnc(Nc3ccc(N4CCC(N5CCOCC5)CC4)c(F)c3)nc1N2C1CCCC1 (stereo not shown) [Compound C132, 7′-cyclopentyl-2′-((3-fluoro-4-(4-morpholinopiperidin-1-yl)phenyl)amino)-5′,7′-dihydrospiro[pyrrolidine-3,6′-pyrrolo[2,3-d]pyrimidin]-2-one] | 0.0561 | 0.0561 | 6930 | 6930 | 40.2 | > 10000 | > 10000 | 9660 | 9660 | – |
| O=C1NCCC12Cc1cnc(Nc3ccc(N4CCC(N5CCOCC5)CC4)nc3)nc1N2C1CCCC1 (stereo not shown) [Compound C133, 7′-cyclopentyl-2′-((6-(4-morpholinopiperidin-1-yl)pyridin-3-yl)amino)-5′,7′-dihydrospiro[pyrrolidine-3,6′-pyrrolo[2,3-d]pyrimidin]-2-one] | 0.202 | 0.202 | > 10000 | > 10000 | 125 | > 10000 | > 10000 | > 10000 | > 10000 | – |
| CN1CC2(C1)CN(c1ccc(Nc3ncc4c(n3)N(C3CCCC3)C3(CC(=O)NC3=O)C4)cc1F)C2 (stereo not shown) [Compound C149, 7′-cyclopentyl-2′-((3-fluoro-4-(6-methyl-2,6-diazaspiro[3.3]heptan-2-yl)phenyl)amino)-5′,7′-dihydrospiro[pyrrolidine-3,6′-pyrrolo[2,3-d]pyrimidine]-2,5-dione] | 0.593 | 0.593 | > 10000 | > 10000 | 85.2 | > 10000 | > 10000 | > 10000 | > 10000 | – |
| CC(C)N1CC2(CN(c3ccc(Nc4ncc5c(n4)N(C4CCCC4)C4(CC(=O)NC4=O)C5)cc3)C2)C1 (stereo not shown) [Compound C150, 7′-cyclopentyl-2′-((4-(6-isopropyl-2,6-diazaspiro[3.3]heptan-2-yl)phenyl)amino)-5′,7′-dihydrospiro[pyrrolidine-3,6′-pyrrolo[2,3-d]pyrimidine]-2,5-dione] | 0.522 | 0.522 | > 10000 | > 10000 | 270 | > 10000 | > 10000 | > 10000 | > 10000 | – |
| CN1CCC(c2ccc(Nc3ncc4c(n3)N(C3CCCC3)C3(CCNC3=O)C4)cc2)CC1 (stereo not shown) [Compound C164, 7′-cyclopentyl-2′-((4-(1-methylpiperidin-4-yl)phenyl)amino)-5′,7′-dihydrospiro[pyrrolidine-3,6′-pyrrolo[2,3-d]pyrimidin]-2-one] | 0.167 | 0.167 | > 10000 | > 10000 | 117 | > 10000 | > 10000 | > 10000 | > 10000 | – |
| O=C1NCCC12Cc1cnc(Nc3ccc(OCCN4CCOCC4)cc3)nc1N2C1CCCC1 (stereo not shown) [Compound C165, 7′-cyclopentyl-2′-((4-(2-morpholinoethoxy)phenyl)amino)-5′,7′-dihydrospiro[pyrrolidine-3,6′-pyrrolo[2,3-d]pyrimidin]-2-one] | 0.702 | 0.702 | > 10000 | > 10000 | 91.4 | > 10000 | > 10000 | > 10000 | > 10000 | – |

Further lines, results first:

| IC50 ([1]; Table 3a) [µM] | IC50 ([1]; Table 3b) [µM] | IC50 ([2]; Table 3a) [nM] | IC50 ([2]; Table 3b) [nM] | IC50 ([3]; Table 3a) [nM] | IC50 ([4]; Table 3a) [nM] | IC50 ([4]; Table 3b) [nM] | IC50 ([5]; Table 3a) [nM] | IC50 ([5]; Table 3b) [nM] | IC50 ([3]; Table 3b) [nM] | Structure (SMILES) |
| --- | --- | --- | --- | --- | --- | --- | --- | --- | --- | --- |
| 1.31 | 1.31 | > 10000 | > 10000 | 23.1 | > 10000 | > 10000 | > 10000 | > 10000 | – | Cn1cc(-c2ccc(Nc3ncc4c(n3)N(C3CCCC3)C3(CCNC3=O)C4)cc2)cn1 (stereo not shown) [Compound C168, 7′-cyclopentyl-2′-((4-(1-methyl-1H-pyrazol-4-yl)phenyl)amino)-5′,7′-dihydrospiro[pyrrolidine-3,6′-pyrrolo[2,3-d]pyrimidin]-2-one] |
| 0.233 | 0.233 | > 10000 | > 10000 | 28.2 | > 10000 | > 10000 | > 10000 | > 10000 | – | O=C1NCCC12Cc1cnc(Nc3ccc(OCCN4CCCC4)nc3)nc1N2C1CCCC1 (stereo not shown) [Compound C170, 7′-cyclopentyl-2′-((6-(2-(pyrrolidin-1-yl)ethoxy)pyridin-3-yl)amino)-5′,7′-dihydrospiro[pyrrolidine-3,6′-pyrrolo[2,3-d]pyrimidin]-2-one] |
| 0.109 | 0.109 | 8410 | 8410 | 33.6 | > 10000 | > 10000 | > 10000 | > 10000 | – | CN(C)[C@H]1CCN(c2ccc(Nc3ncc4c(n3)N(C3CCCC3)C3(CCNC3=O)C4)cc2F)C1 (stereo partly drawn) [Compound C173, 7′-cyclopentyl-2′-((4-((S)-3-(dimethylamino)pyrrolidin-1-yl)-3-fluorophenyl)amino)-5′,7′-dihydrospiro[pyrrolidine-3,6′-pyrrolo[2,3-d]pyrimidin]-2-one] |
| 0.142 | 0.142 | 7580 | 7580 | 27 | > 10000 | > 10000 | > 10000 | > 10000 | – | CN(C)[C@@H]1CCN(c2ccc(Nc3ncc4c(n3)N(C3CCCC3)C3(CCNC3=O)C4)cc2F)C1 (stereo partly drawn) [Compound C176, 7′-cyclopentyl-2′-((4-((R)-3-(dimethylamino)pyrrolidin-1-yl)-3-fluorophenyl)amino)-5′,7′-dihydrospiro[pyrrolidine-3,6′-pyrrolo[2,3-d]pyrimidin]-2-one] |
| 0.0453 | 0.0453 | 1050 | 1050 | 8.65 | > 10000 | > 10000 | 681 | 681 | – | CN(C)[C@H]1CCN(C(=O)c2ccc(Nc3ncc4c(n3)N(C3CCCC3)C3(CCNC3=O)C4)cc2)C1 (stereo partly drawn) [Compound C178, 7′-cyclopentyl-2′-((4-((S)-3-(dimethylamino)pyrrolidine-1-carbonyl)phenyl)amino)-5′,7′-dihydrospiro[pyrrolidine-3,6′-pyrrolo[2,3-d]pyrimidin]-2-one] |
| 0.0679 | 0.0679 | 3550 | 3550 | 60.2 | > 10000 | > 10000 | 1940 | 1940 | – | CN(C)[C@@H]1CCN(C(=O)c2ccc(Nc3ncc4c(n3)N(C3CCCC3)C3(CCNC3=O)C4)cc2)C1 (stereo partly drawn) [Compound C181, 7′-cyclopentyl-2′-((4-((R)-3-(dimethylamino)pyrrolidine-1-carbonyl)phenyl)amino)-5′,7′-dihydrospiro[pyrrolidine-3,6′-pyrrolo[2,3-d]pyrimidin]-2-one] |
| 0.341 | 0.341 | > 10000 | > 10000 | 148 | > 10000 | > 10000 | 9570 | 9570 | – | CC1CN(c2ccc(Nc3ncc4c(n3)N(C3CCCC3)C3(CCNC3=O)C4)cc2)CC(C)N1 (stereo not shown) [Compound C207, 7′-cyclopentyl-2′-((4-(3,5-dimethylpiperazin-1-yl)phenyl)amino)-5′,7′-dihydrospiro[pyrrolidine-3,6′-pyrrolo[2,3-d]pyrimidin]-2-one] |
| 0.0668 | 0.0668 | 2020 | 2020 | 79.9 | > 10000 | > 10000 | 2280 | 2280 | – | CC1CN(c2ccc(Nc3ncc4c(n3)N(C3CCCC3)C3(CC(=O)NC3=O)C4)cc2)CC(C)N1 (stereo not shown) [Compound C208, 7′-cyclopentyl-2′-((4-(3,5-dimethylpiperazin-1-yl)phenyl)amino)-5′,7′-dihydrospiro[pyrrolidine-3,6′-pyrrolo[2,3-d]pyrimidine]-2,5-dione] |
| 1.38 | 1.38 | > 10000 | > 10000 | 153 | > 10000 | > 10000 | 5010 | 5010 | – | CC(C)c1ccc(Nc2ncc3c(n2)N(C2CCCC2)C2(CCNC2=O)C3)cc1 (stereo not shown) [Compound C209, 7′-cyclopentyl-2′-((4-isopropylphenyl)amino)-5′,7′-dihydrospiro[pyrrolidine-3,6′-pyrrolo[2,3-d]pyrimidin]-2-one] |
| 3.96 | 3.96 | > 10000 | > 10000 | > 10000 | > 10000 | > 10000 | > 10000 | > 10000 | > 10000 | CN(C)CCOc1ccc(Nc2ncc3c(n2)N(C2CCCC2)C2(CCNC2=O)C3)nc1 (stereo not shown) [Compound C210, 7′-cyclopentyl-2′-((5-(2-(dimethylamino)ethoxy)pyridin-2-yl)amino)-5′,7′-dihydrospiro[pyrrolidine-3,6′-pyrrolo[2,3-d]pyrimidin]-2-one] |
